Starred links: 1 amine or outer side, 2 acyl side, 3 side chain; linkers in the order of their positions; H or OH if unused. Non-standard residues stand in square brackets, D forms with d. Residues, ends and D or L forms follow the SMILES beside them. Primed or numbered codes have the meaning given here. Tyr(Me) = COc1ccc(C[C@H](N[*:1])C(=O)[*:2])cc1; d1Nal = N[C@H](Cc1cccc2ccccc12)C(=O)O; d2Nal = N[C@H](Cc1ccc2ccccc2c1)C(=O)O; Arg(Me) = CNC(=N)NCCC[C@H](N)C(=O)O; Abu = CC[C@H](N)C(=O)O; Aib = CC(C)(N)C(=O)O; azaGly = NNC(=O)O
Target: T1, hOT7T175 (Homo sapiens, UniProt Q969F8, L364H)
T1 construct: expressed in transfected cells
T1 sequence (Q969F8 whole entry L364H): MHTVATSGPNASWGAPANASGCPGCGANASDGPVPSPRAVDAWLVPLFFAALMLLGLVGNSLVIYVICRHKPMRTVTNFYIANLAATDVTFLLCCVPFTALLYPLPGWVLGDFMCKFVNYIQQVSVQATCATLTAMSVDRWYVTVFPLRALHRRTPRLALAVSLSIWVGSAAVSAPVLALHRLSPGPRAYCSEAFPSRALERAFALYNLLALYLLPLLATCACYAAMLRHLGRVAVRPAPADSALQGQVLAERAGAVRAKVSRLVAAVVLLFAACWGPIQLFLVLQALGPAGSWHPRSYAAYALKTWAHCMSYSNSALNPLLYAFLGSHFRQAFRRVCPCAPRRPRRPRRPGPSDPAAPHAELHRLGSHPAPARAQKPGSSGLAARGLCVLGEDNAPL
Type: cell-based
Settings: hOT7T175/CHO, FLIPR, evaluation for 40 seconds after initiation of the reaction
Description: The intracellular Ca ion level-increasing activity was measured using FLIPR as in TEST EXAMPLE 2.

## 2-Naphthoyl-Asn-Ser-Phe-AzaGly-Leu-Arg(Me)-Trp-NH2 [Compound No. 535]
  Specific Act. (EC50/MS10 EC50): 0.8

## 3-Phenylpropionyl-Asn-Aze(2)-Phe-AzaGly-Leu-Arg(Me)-Trp-NH2 [Compound No. 532]
  Specific Act. (EC50/MS10 EC50): 1.0

## 3-Phenylpropionyl-Asn-D-Pro-Phe-AzaGly-Leu-Arg(Me)-Trp-NH2 [Compound No. 533]
  Specific Act. (EC50/MS10 EC50): 9.7

## 3-Phenylpropionyl-Asn-Pic(2)-Phe-AzaGly-Leu-Arg(Me)-Trp-NH2 [Compound No. 531]
  Specific Act. (EC50/MS10 EC50): 1.8

## 3-Phenylpropionyl-Asn-Pro-Phe-AzaGly-Leu-Arg(Me)-Trp-NH2 [Compound No. 524]
  Specific Act. (EC50/MS10 EC50): 1.1

## 3-Phenylpropionyl-Asn-Ser(Ac)-Phe-AzaGly-Leu-Arg(Me)-Trp-NH2 [Compound No. 546]
  Specific Act. (EC50/MS10 EC50): 1.9

## 3-Phenylpropionyl-Asn-Ser-Cha-Gly-Leu-Arg(Me)-Trp-NH2 [Compound No. 518]
  Specific Act. (EC50/MS10 EC50): 10.5

## CNC(=N)NCCC[C@H](NC(=O)[C@H](CC(C)C)NC(=O)CNC(=O)[C@H](Cc1ccccc1)NC(=O)[C@H](CO)NC(=O)[C@H](CC(N)=O)NC(=O)[C@H](Cc1c[nH]c2ccccc12)NC(=O)[C@H](CC(N)=O)NC(=O)[C@@H](N)Cc1ccc(O)cc1)C(=O)N[C@@H](Cc1ccccc1)C(N)=O [Compound No. 82]
  Specific Act. (EC50/MS10 EC50): 1.0

## CNC(=N)NCCC[C@H](NC(=O)[C@H](CC(C)C)NC(=O)NNC(=O)[C@H](Cc1ccccc1)NC(=O)[C@H](CO)NC(=O)[C@H](CC(N)=O)NC(=O)[C@H](CO)NC(=O)[C@H](N)Cc1ccc(O)cc1)C(=O)N[C@@H](Cc1ccccc1)C(N)=O [Compound No. 239, D-Tyr-Ser-Asn-Ser-Phe-AzaGly-Leu-Arg(Me)-Phe-NH2] (H-[dY]SNSF[azaGly]L[Arg(Me)]F-NH2)
  Specific Act. (EC50/MS10 EC50): 6.7

## CC[C@H](C)[C@H](NC(=O)[C@H](N)Cc1ccc(O)cc1)C(=O)N[C@@H](CC(N)=O)C(=O)N[C@@H](CO)C(=O)N[C@@H](Cc1ccccc1)C(=O)NNC(=O)N[C@@H](CC(C)C)C(=O)N[C@@H](CCCNC(=N)NC)C(=O)N[C@@H](Cc1ccccc1)C(N)=O [Compound No. 240, D-Tyr-Ile-Asn-Ser-Phe-AzaGly-Leu-Arg(Me)-Phe-NH2] (H-[dY]INSF[azaGly]L[Arg(Me)]F-NH2)
  Specific Act. (EC50/MS10 EC50): 4.9

## Ac-D-Tyr-D-Pro-Asn-Thr-Phe-AzaGly-Leu-Arg(Me)-Trp-NH2 (Ac-[dY][dP]NTF[azaGly]L[Arg(Me)]W-NH2; SMILES CNC(=N)NCCC[C@H](NC(=O)[C@H](CC(C)C)NC(=O)NNC(=O)[C@H](Cc1ccccc1)NC(=O)[C@@H](NC(=O)[C@H](CC(N)=O)NC(=O)[C@H]1CCCN1C(=O)[C@@H](Cc1ccc(O)cc1)NC(C)=O)[C@@H](C)O)C(=O)N[C@@H](Cc1c[nH]c2ccccc12)C(N)=O) [Compound No. 661]
  Specific Act. (EC50/MS10 EC50): 8.5

## Ac-D-Tyr-D-Pya(4)-Asn-Thr-D-Phe-AzaGly-Leu-Arg(Me)-Trp-NH2 [Compound No. 603]
  Specific Act. (EC50/MS10 EC50): 1.7

## Ac-D-Tyr-D-Pya(4)-Asn-Thr-Phe-AzaGly-Leu-Arg(Me)-Phe-NH2 [Compound No. 685]
  Specific Act. (EC50/MS10 EC50): 4.8

## Ac-D-Tyr-D-Trp-Alb-Ser-Phe-AzaGly-Leu-Arg(Me)-Trp-NH2 [Compound No. 579]
  Specific Act. (EC50/MS10 EC50): 0.6

## Ac-D-Tyr-D-Trp-Asn-Aze(2)-Phe-AzaGly-Leu-Arg(Me)-Trp-NH2 [Compound No. 563]
  Specific Act. (EC50/MS10 EC50): 0.7

## Ac-D-Tyr-D-Trp-Asn-Thr-Phe-AzaGly-Abu-Arg(Me)-Trp-NH2 (Ac-[dY][dW]NTF[azaGly][Abu][Arg(Me)]W-NH2; SMILES CC[C@H](NC(=O)NNC(=O)[C@H](Cc1ccccc1)NC(=O)[C@@H](NC(=O)[C@H](CC(N)=O)NC(=O)[C@@H](Cc1c[nH]c2ccccc12)NC(=O)[C@@H](Cc1ccc(O)cc1)NC(C)=O)[C@@H](C)O)C(=O)N[C@@H](CCCNC(=N)NC)C(=O)N[C@@H](Cc1c[nH]c2ccccc12)C(N)=O) [Compound No. 698]
  Specific Act. (EC50/MS10 EC50): 2.2

## Ac-D-Tyr-D-Trp-Asn-Thr-Phe-AzaGly-Gln-Arg(Me)-Trp-NH2 (Ac-[dY][dW]NTF[azaGly]Q[Arg(Me)]W-NH2; SMILES CNC(=N)NCCC[C@H](NC(=O)[C@H](CCC(N)=O)NC(=O)NNC(=O)[C@H](Cc1ccccc1)NC(=O)[C@@H](NC(=O)[C@H](CC(N)=O)NC(=O)[C@@H](Cc1c[nH]c2ccccc12)NC(=O)[C@@H](Cc1ccc(O)cc1)NC(C)=O)[C@@H](C)O)C(=O)N[C@@H](Cc1c[nH]c2ccccc12)C(N)=O) [Compound No. 682]
  Specific Act. (EC50/MS10 EC50): 7.3

## Ac-D-Tyr-D-Trp-Asn-Thr-Phe-AzaGly-Ile-Arg(Me)-Trp-NH2 (Ac-[dY][dW]NTF[azaGly]I[Arg(Me)]W-NH2; SMILES CC[C@H](C)[C@H](NC(=O)NNC(=O)[C@H](Cc1ccccc1)NC(=O)[C@@H](NC(=O)[C@H](CC(N)=O)NC(=O)[C@@H](Cc1c[nH]c2ccccc12)NC(=O)[C@@H](Cc1ccc(O)cc1)NC(C)=O)[C@@H](C)O)C(=O)N[C@@H](CCCNC(=N)NC)C(=O)N[C@@H](Cc1c[nH]c2ccccc12)C(N)=O) [Compound No. 678]
  Specific Act. (EC50/MS10 EC50): 1.1

## Ac-D-Tyr-D-Trp-Asn-Thr-Phe-AzaGly-Leu-Arg(Me2)asym-Trp-NH2 [Compound No. 607]
  Specific Act. (EC50/MS10 EC50): 2.2

## Ac-D-Tyr-D-Trp-Asn-Thr-Phe-AzaGly-Leu-Arg(Me)-D-Trp-NH2 (Ac-[dY][dW]NTF[azaGly]L[Arg(Me)][dW]-NH2; SMILES CNC(=N)NCCC[C@H](NC(=O)[C@H](CC(C)C)NC(=O)NNC(=O)[C@H](Cc1ccccc1)NC(=O)[C@@H](NC(=O)[C@H](CC(N)=O)NC(=O)[C@@H](Cc1c[nH]c2ccccc12)NC(=O)[C@@H](Cc1ccc(O)cc1)NC(C)=O)[C@@H](C)O)C(=O)N[C@H](Cc1c[nH]c2ccccc12)C(N)=O) [Compound No. 689]
  Specific Act. (EC50/MS10 EC50): 2.3

## Ac-D-Tyr-D-Trp-Asn-Thr-Phe-AzaGly-Leu-Har(Me)-Trp-NH2 [Compound No. 646]
  Specific Act. (EC50/MS10 EC50): 1.8

## Ac-D-Tyr-D-Trp-Asn-Thr-Phe-AzaGly-Leu-Pya(4)-Trp-NH2 (Ac-[dY][dW]NTF[azaGly]L-{Pya(4)-Trp-NH2}) [Compound No. 688]
  Specific Act. (EC50/MS10 EC50): 9.7

## Ac-D-Tyr-D-Trp-Asn-Thr-Phe-AzaGly-γMeLeu-Arg(Me)-Trp-NH2 (Ac-[dY][dW]NTF[azaGly]-{γMeLeu-Arg(Me)-Trp-NH2}) [Compound No. 699]
  Specific Act. (EC50/MS10 EC50): 1.3

## Ac-D-Tyr-D-Trp-Asn-Thr-Phe-Gly-Aib-Arg(Me)-Trp-NH2 (Ac-[dY][dW]NTFG[Aib][Arg(Me)]W-NH2; SMILES CNC(=N)NCCC[C@H](NC(=O)C(C)(C)NC(=O)CNC(=O)[C@H](Cc1ccccc1)NC(=O)[C@@H](NC(=O)[C@H](CC(N)=O)NC(=O)[C@@H](Cc1c[nH]c2ccccc12)NC(=O)[C@@H](Cc1ccc(O)cc1)NC(C)=O)[C@@H](C)O)C(=O)N[C@@H](Cc1c[nH]c2ccccc12)C(N)=O) [Compound No. 700]
  Specific Act. (EC50/MS10 EC50): 0.8

## Ac-D-Tyr-D-Trp-Asn-Thr-PheΨ(CH2NH)Gly-Leu-Arg(Me)-Trp-NH2 [Compound No. 569]
  Specific Act. (EC50/MS10 EC50): 0.5

## Ac-D-Tyr-D-Trp-Asn-Thr-Trp-AzaGly-Leu-Arg(Me)-Trp-NH2 (Ac-[dY][dW]NTW[azaGly]L[Arg(Me)]W-NH2; SMILES CNC(=N)NCCC[C@H](NC(=O)[C@H](CC(C)C)NC(=O)NNC(=O)[C@H](Cc1c[nH]c2ccccc12)NC(=O)[C@@H](NC(=O)[C@H](CC(N)=O)NC(=O)[C@@H](Cc1c[nH]c2ccccc12)NC(=O)[C@@H](Cc1ccc(O)cc1)NC(C)=O)[C@@H](C)O)C(=O)N[C@@H](Cc1c[nH]c2ccccc12)C(N)=O) [Compound No. 692]
  Specific Act. (EC50/MS10 EC50): 0.7

## Ac-D-Tyr-D-Trp-Asn-Thr-Tyr(Me)-AzaGly-Leu-Arg(Me)-Trp-NH2 (Ac-[dY][dW]NT[Tyr(Me)][azaGly]L[Arg(Me)]W-NH2; SMILES CNC(=N)NCCC[C@H](NC(=O)[C@H](CC(C)C)NC(=O)NNC(=O)[C@H](Cc1ccc(OC)cc1)NC(=O)[C@@H](NC(=O)[C@H](CC(N)=O)NC(=O)[C@@H](Cc1c[nH]c2ccccc12)NC(=O)[C@@H](Cc1ccc(O)cc1)NC(C)=O)[C@@H](C)O)C(=O)N[C@@H](Cc1c[nH]c2ccccc12)C(N)=O) [Compound No. 693]
  Specific Act. (EC50/MS10 EC50): 1.5

## Ac-D-Tyr-D-Trp-Asn-Thr-Tyr-AzaGly-Leu-Arg(Me)-Trp-NH2 (Ac-[dY][dW]NTY[azaGly]L[Arg(Me)]W-NH2; SMILES CNC(=N)NCCC[C@H](NC(=O)[C@H](CC(C)C)NC(=O)NNC(=O)[C@H](Cc1ccc(O)cc1)NC(=O)[C@@H](NC(=O)[C@H](CC(N)=O)NC(=O)[C@@H](Cc1c[nH]c2ccccc12)NC(=O)[C@@H](Cc1ccc(O)cc1)NC(C)=O)[C@@H](C)O)C(=O)N[C@@H](Cc1c[nH]c2ccccc12)C(N)=O) [Compound No. 691]
  Specific Act. (EC50/MS10 EC50): 1.1

## Ac-D-Tyr-D-Trp-Asp(NMe2)-Thr-Phe-AzaGly-Leu-Arg(Me)-Trp-NH2 [Compound No. 703]
  Specific Act. (EC50/MS10 EC50): 3.7

## Ac-D-Tyr-D-Trp-Gly-Ser-Phe-AzaGly-Leu-Arg(Me)-Trp-NH2 (Ac-[dY][dW]GSF[azaGly]L[Arg(Me)]W-NH2; SMILES CNC(=N)NCCC[C@H](NC(=O)[C@H](CC(C)C)NC(=O)NNC(=O)[C@H](Cc1ccccc1)NC(=O)[C@H](CO)NC(=O)CNC(=O)[C@@H](Cc1c[nH]c2ccccc12)NC(=O)[C@@H](Cc1ccc(O)cc1)NC(C)=O)C(=O)N[C@@H](Cc1c[nH]c2ccccc12)C(N)=O) [Compound No. 686]
  Specific Act. (EC50/MS10 EC50): 0.6

## Ac-D-Tyr-Pya(4)-Asn-Thr-Phe-AzaGly-Leu-Arg(Me)-Trp-NH2 [Compound No. 624]
  Specific Act. (EC50/MS10 EC50): 1.2

## Ac-Tyr-D-Pya(4)-Asn-Thr-Phe-AzaGly-Leu-Arg(Me)-Trp-NH2 [Compound No. 611]
  Specific Act. (EC50/MS10 EC50): 1.7

## Ac-[d1Nal][dW]NTF[azaGly]L[Arg(Me)]W-NH2 [Compound No. 619]
  Specific Act. (EC50/MS10 EC50): 1.5

## Ac-[d2Nal][dW]NTF[azaGly]L[Arg(Me)]W-NH2 [Compound No. 620]
  Specific Act. (EC50/MS10 EC50): 1.7

## Ac-[dE][dW]NTF[azaGly]L[Arg(Me)]W-NH2 [Compound No. 622]
  Specific Act. (EC50/MS10 EC50): 2.8

## Ac-[dR][dY][dW]NTF[azaGly]L[Arg(Me)]W-NH2 [Compound No. 568]
  Specific Act. (EC50/MS10 EC50): 0.6

Reference: patent US8778871B2 (Takeda Pharmaceutical Company Limited, priority 2004, dated 2014)
